For data set [1], the target named is GST-AKAP18δ: PLB-biotin interaction (Rattus norvegicus (Rat), UniProt Q6JP77). Put plainly: AKAP18δ-PLB AlphaScreen assay. Type of data set: binding. Here is the method: Stable and optimal assay conditions were determined by cross-titrating GST-AKAP18 δ and biotinylated PLB using 10 μg/ml glutathione acceptor beads and 10 μg/ml streptavidin donor beads in an AlphaScreen assay. The excitation wavelength was 680 nm, with the emission wavelength being 520-560 nm. Signal intensity in each well was registered and the optimal concentration to use was chosen to be the concentration prior to the peak of the signal.
Concentrations to give a reliable signal were determined to be between 2 and 16 nM for AKAP18δ-GST and 4 and 20 nM PLB-biotin for relevant preparations of protein, for example 4 nM and 20 nM, respectively.

Data set [2] deals with metabolically active cells. In words: Cell viability luminescence assay. Type of data set: cell-based. The method, then:
Compound toxicity was measured in a luminescence assay that gives a signal proportional to the amount of metabolically active cells in the sample; the assay was performed as described by the supplier. All synthesized compounds were tested in the viability assay, and viability was registered at 24 hours and 72 hours.

The test system of data set [3] is PLB-Ser16 phosphorylation. In words: PLB-Ser16 phosphorylation in rat neonatal cardiomyocytes after isoproterenol stimulation (western blot). It counts as cell-based. The following applies: 24 hours prior to isoproterenol 100 nM, 5 minutes. Here is the method:
Based on data from studies in cardiomyocytes assay using a peptide that blocks AKAP18δ-PLB interaction, it was expected that effective compounds would also cause disruption of the AKAP18δ-PLB complex and decrease PLB-Ser^16 phosphorylation (Lygren et al. in EMBO Reports, volume 8, issue 11, page 1061-1067 (2007). A small selection of hits from the derivatized compounds were tested in this cell-based assay, performed as described in Lygren et al.
Briefly, compounds were added to primary cultures of rat neonatal cardiomyocytes were added compounds about 24 hour prior stimulation with isoproterenol, and amount of phosphorylated Ser^16-PLB was analyzed by western blotting using a pSer^16-PLB phosphospecific antibody. Actin was used as a loading control.
Rat neonatal cardiomyocytes treated with compounds 24 hours prior stimulation with isoproterenol (100 nM, 5 minutes).
Following on Example 53, two compounds, 2g and 3d (FIGS. 9A,B and 9C, respectively), were tested in more detail for their ability to interfere with phosphorylation of phospholamban after stimulation of neonatal (FIGS. 9A and 9C) or adult (FIG. 9B) primary cultures of cardiomyocytes.

The next data set concerns the target SERCA2 (Rattus norvegicus (Rat), UniProt P11507). In words: Patch clamp based SERCA2 activity in adult rat cardiomyocytes. It counts as cell-based. The following applies: mesylate salt, 10 uM, in the presence of cAMP. The method, then: Adult rat cardiomyocytes were isolated and perfused with external solution (NaCl 125, CsCl 20, D-glucose 5, MgCl2 1, CaCl2 1.8, Hepes 10, 4-aminopyridine 5, probenecid 2, pH 7.4 by NaCH). Cell dialysis was achieved by 1-2 MΩ patch pipettes, filled with (in mM): CsCl 115, TEACl 20, Hepes 10, MgATP 5, Na2-Phosphocreatinine 5, EGTA 0.04, cAMP 0.005, adjusted to pH=7.2 with CsOH. Compound 2g (mesylate salt dissolved in water) was included at a concentration of 10 uM. Whole-cell Ca fluorescence measured from voltage-clamped cells was performed with Cairn Research Optoscan Monochromator (Excitation 488 nm, emission 515 nm long pass) (Cain Research Ltd., Faverham, UK). By applying 100 ms square voltage step from −45 to 0 mV at 0.125 Hz by an Axociamp 2B amplifier (Axon Instruments, Foster City, Calif., USA), basal Ca transients were recorded, and tau values were obtained by monoexponential fitting of the Ca^2+ extrusion phase from regular transients (τ) and caffeine transients (τcaff) after rapid applications of 10 mM caffeine. SERCA2 rate constant were calculated as: k_SERCA=1/τ−1/τcaff.
In general terms: In patch-clamp work, channel activity is measured electrically.

Data set [4] is described as follows: Aqueous solubility of tribenzylamine and salts quantified by HPLC (AUC). It counts as physicochemical. The following applies: free base in water. The method, then:
Tribenzylamine and the corresponding salts were dissolved in water and the solubility was quantified (area under curve (AUC)) by HPLC

[5] abbreviates: screening of compound library, read-out: EC50.
Where [6] appears, read: average ± standard deviation (n = 3) or ± half range (n = 2), read-out: EC50 in μM (n).
[7] abbreviates: average ± standard deviation (n = 3) or ± half range (n = 2), read-out: EC50 (n).

Where two headings read alike, the source gives them in different places.

Chain of GST-AKAP18δ: PLB-biotin interaction (Q6JP77 whole entry): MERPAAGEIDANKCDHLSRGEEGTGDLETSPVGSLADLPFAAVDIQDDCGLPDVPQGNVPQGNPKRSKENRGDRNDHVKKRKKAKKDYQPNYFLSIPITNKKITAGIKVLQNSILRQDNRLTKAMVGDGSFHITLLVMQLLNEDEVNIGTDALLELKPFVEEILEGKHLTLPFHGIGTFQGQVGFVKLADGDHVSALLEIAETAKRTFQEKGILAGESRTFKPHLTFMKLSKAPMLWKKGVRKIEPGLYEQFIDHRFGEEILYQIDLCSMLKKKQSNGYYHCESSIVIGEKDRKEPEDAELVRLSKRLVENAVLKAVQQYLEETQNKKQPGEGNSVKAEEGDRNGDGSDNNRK

For the compound `CC(C)(C)c1ccc(CN(Cc2ccc(F)cc2)Cc2nc(C(=O)O)cs2)cc1`, the concentration giving a half-maximal response (EC50) (commonly the concentration giving half of the maximal effect) in data set [1] (setting [5]) amounted to 41.6 µM.

Consider `Cc1ccc(CN(Cc2ccc(F)cc2)Cc2nc(C(=O)O)cs2)cc1`, for which the EC50 in data set [1] (setting [5]) stood at 137 µM. Same read-out and setting: the value for `O=C(O)c1csc(CN(CCC(c2ccccc2)c2ccccc2)Cc2ccccc2F)n1` was 10.6 µM.

In the case of `O=C(O)c1csc(CN(CCC(c2ccccc2)c2ccccc2)Cc2ccc(F)cc2)n1`, the concentration for a half-maximal effect (EC50) in data set [1] (setting [5]) is 18 µM.

In the case of `CC(C)(C)c1ccc(CN(CCC(c2ccccc2)c2ccccc2)Cc2nc(C(=O)O)cs2)cc1`, in data set [1] (setting [5]), the EC50 was 21.1 µM. The same measure, in the same setting: the value for `O=C(O)c1csc(CN(Cc2ccc(F)cc2)Cc2cccc(Cl)c2)n1` was 36.4 µM; that for `O=C(O)c1csc(CN(Cc2ccc(F)cc2)Cc2ccc(OCc3ccccc3)cc2)n1` was 39.5 µM. In the case of `O=C(O)c1csc(CN(Cc2ccc(F)cc2)Cc2cccc(C(F)(F)F)c2)n1`, the EC50 in data set [1] (setting [5]) was found to be 60.5 µM. On to `O=C(O)c1csc(CN(Cc2ccc(F)cc2)Cc2ccc(Cl)cc2)n1`, for which the concentration giving a half-maximal response (EC50) in data set [1] (setting [5]) came out at 94.3 µM. The same measure, in the same setting: the value for `Cc1ccc(CN(Cc2cccc(C(F)(F)F)c2)Cc2nc(C(=O)O)cs2)cc1` was 98.3 µM.

In the case of `COc1ccc(CN(Cc2ccc(F)cc2)Cc2nc(C(=O)O)cs2)cc1`, the EC50 in data set [1] (setting [5]) came to 25.6 µM.

As for `Cc1ccc(CN(CCC(c2ccccc2)c2ccccc2)Cc2nc(C(=O)O)cs2)cc1`, the EC50 in data set [1] (setting [5]) amounted to 35.4 µM.

Regarding `O=C(O)c1ccc(CN(Cc2ccccc2)Cc2ccc(C(=O)O)cc2)cc1`, in data set [1] (setting [5]), the EC50 was found to be 29.6 µM. On the same count and under the same terms, the value for `Nc1ccc(CN(Cc2ccccc2)Cc2ccc(N)cc2)cc1` was 3.8 µM; that for `O=C(O)c1csc(CN(Cc2cccc(C(F)(F)F)c2)Cc2ccccc2F)n1` was 216 µM. Still for that read-out and setting: to `O=[N+]([O-])c1ccc(CN(Cc2ccccc2)Cc2ccc([N+](=O)[O-])cc2)cc1` belongs 7.5 µM. Same read-out and setting: the value for `O=C(Nc1ccc(F)cc1)Nc1ccc(CN(Cc2ccccc2)Cc2ccc(NC(=O)Nc3ccc(F)cc3)cc2)cc1` was 9.3 µM; that for `O=C(Nc1ccccc1)Nc1ccc(CN(Cc2ccccc2)Cc2ccc(NC(=O)Nc3ccccc3)cc2)cc1` was 3.6 µM; that for `CCN(CC)c1ccc(CN(Cc2ccccc2)Cc2ccc(N(CC)CC)cc2)cc1` was 2.9 µM. Consider `Nc1ccc(CN(Cc2ccc(N)cc2)Cc2ccc(N)cc2)cc1`, for which, in data set [1] (setting [5]), the EC50 is 22.2 µM. Still for that read-out and setting: the value for `Cc1ccc(NC(=O)Nc2ccc(CN(Cc3ccccc3)Cc3ccc(NC(=O)Nc4ccc(C)cc4)cc3)cc2)cc1` was 2.5 µM. With `Cc1ccc(NC(=O)Nc2ccc(CN(Cc3ccc(NC(=O)Nc4ccccc4)cc3)Cc3ccc(NC(=O)Nc4ccc(C)cc4)cc3)cc2)cc1`, in data set [1] (setting [5]), the EC50 worked out at 5.2 µM. With `Fc1ccc(CN(Cc2ccncc2)Cc2ccc(F)cc2)cc1` [Example 2a], in data set [2], the “Viability (100 μM) 24 hours” value was determined as 0.85. For the compound `Oc1ccc(O)c(CN(Cc2ccncc2)Cc2cc(O)ccc2O)c1` [Example 2b], the EC50 in data set [1] (setting [6]) was 12.3 ± 3.08 µM. Besides, the “Effect on PLB phosphorylation in cardiomyocytes” value in data set [3] is on record as “−”. In addition, the “Viability (100 μM) 24 hours” value in data set [2] came to 0.10. `COC(=O)c1ccc(CN(Cc2ccccc2)Cc2ccc(C(=O)OC)cc2)cc1` [Example 2f]: the “Viability (100 μM) 24 hours” value in data set [2] is 0.92. On to `CN(C)c1ccc(CN(Cc2ccccc2)Cc2ccc(N(C)C)cc2)cc1` [Example 2g], for which the 50% effective concentration (EC50) in data set [1] (setting [6]) came to 1.7 ± 0.91 µM. For the same compound, in data set [3], the “Effect on PLB phosphorylation in cardiomyocytes” value was “++” and the “effect on PLB phosphorylation in cardiomyocytes” value is given as “concentration dependent inhibition of PLB-phosphorylation”. Moreover, in data set [2], the “Viability (100 μM) 24 hours” value came to 0.56. In addition, the SERCA2 activity result at SERCA2 is reported as “increased SERCA2 activity”. As to `CC(c1ccccc1)N(Cc1ccc(N(C)C)cc1)Cc1ccc(N(C)C)cc1` (stereo not shown) [Example 2h], the “Viability (100 μM) 24 hours” value in data set [2] amounted to 0.91. On the same count and under the same terms, the value for `CC(C)(C)c1ccc(CN(Cc2ccncc2)Cc2ccc(F)cc2)cc1` [Example 3a] was 0.79. Turning to `Oc1ccc(O)c(CN(Cc2ccncc2)Cc2ccc(F)cc2)c1` [Example 3b], the results for the concentration for a half-maximal effect (EC50) result in data set [1] and in data set [1] (setting [7]) were “approximately the same as for 2b” and 5.43 ± 1.11 µM, respectively. Moreover, the “Viability (100 μM) 24 hours” value in data set [2] was 0.03. As to `CN(C)c1ccc(CN(Cc2ccccc2)CC(c2ccccc2)c2ccccc2)cc1` [Example 3c], in data set [1] (setting [7]), the concentration giving a half-maximal response (EC50) amounted to 0.44 ± 0.18 µM. For the same compound, in data set [1] (read-out: EC50), the concentration for a half-maximal effect (EC50) stood at 0.327 µM. In data set [3], the “Effect on PLB phosphorylation in cardiomyocytes” value is “+” and the “effect on PLB phosphorylation in cardiomyocytes” value is recorded as “somewhat weaker than that of 2g”. Also, the “Viability (100 μM) 24 hours” value in data set [2] is 0.74.

Take `CN(C)c1ccc(CN(Cc2ccccc2)Cc2ccc3c(c2)CCO3)cc1` [Example 3d]: the results for the EC50 in data set [1] (setting [7]) and in data set [1] (read-out: EC50) were 2.45 ± 0.73 µM and 2.79 µM, respectively. Besides, the “effect on PLB phosphorylation in cardiomyocytes” value in data set [3] was “did not appear to have an effect”. Further, in data set [2], the “Viability (100 μM) 24 hours” value came to 0.58. Turning to `COC(=O)c1ccc(CN(Cc2ccccc2)Cc2ccc(F)cc2)cc1` [Example 3e], in data set [2], the “Viability (100 μM) 24 hours” value amounted to 0.57.

In the case of `O=C(O)c1ccc(CN(Cc2ccccc2)Cc2ccc(F)cc2)cc1` [Example 3f], in data set [3], the “Effect on PLB phosphorylation in cardiomyocytes” value is listed as “+” and the “effect on PLB phosphorylation in cardiomyocytes” value is listed as “did not appear to have an effect”. For the same compound, the “Viability (100 μM) 24 hours” value in data set [2] amounted to 0.98.

In the case of `Fc1ccc(CN(Cc2ccccc2)Cc2ccc(-c3ccccc3-c3nn[nH]n3)cc2)cc1` [Example 3g], the EC50 in data set [1] (setting [7]) and in data set [1] (read-out: EC50) was 47.1 µM throughout. The “Viability (100 μM) 24 hours” value in data set [2] is listed as 0.80. On to `CN(C)c1ccc(CN(Cc2ccccc2)Cc2ccc(N(C)C)cc2)cc1` [drawing 177], for which, in data set [1] (setting [5]), the EC50 was 2 µM. Consider `c1ccc(CN(Cc2ccccc2)Cc2ccccc2)cc1` [tribenzylamine, Tribenzylamine], for which the “AUC Free base” value in data set [4] is listed as “≈0 mAu*s”.

For the origin of these results see US9951033B2, “Tertiary amines for use in the treatment of cardiac disorders” (Universitetet I Oslo, priority 2012, dated 2018).
